Columns and labels:
Type in all cases: in vivo
[1] = test system: Abutilon theophrasti (ABUTH); assay: Glasshouse herbicide test, post-emergence; details: POST Application; 500 g/h; evaluated after 13 days
Method: (§1) Seeds of a variety of test species are shown in standard soil in pots (Lolium perenne (LOLPE), Amaranthus retoflexus (AMARE), Abutilon theophrasti (ABUTH), Setaria faberi (SETFA), Echinochloa crus-galli (ECHCG), Ipomoea hederacea (IPOHE)). After cultivation for one day (pre-emergence) or after 8 days cultivation (post-emergence) under controlled conditions in a glasshouse (at 24/16° C., day/night; 14 hours light; 65% humidity), the plants are sprayed with an aqueous spray solution derived from the formulation of the technical active ingredient in acetone/water (50:50) solution containing 0.5% Tween 20 (polyoxyethelyene sorbitan monolaurate, CAS RN 9005-64-5). Compounds are applied at 500 g/h. The test plants are then grown in a glasshouse under controlled conditions in a glasshouse (at 24/16° C., day/night; 14 hours light; 65% humidity) and watered twice daily. After 13 days for pre and post-emergence, the test is evaluated for the percentage damage caused to the plant. The biological activities are shown in the following table on a five point scale (5=80-100%; 4=60-79%; 3=40-59%; 2=20-39%; 1=0-19%).

Setaria faberi (SETFA) [2] = assay: Glasshouse herbicide test, post-emergence; details: POST Application; 500 g/h; evaluated after 13 days
Method: as §1

[3] = test system: Echinochloa crus-galli (ECHCG); assay: Glasshouse herbicide test, post-emergence; details: POST Application; 500 g/h; evaluated after 13 days
Method: as §1

[4] = test system: Amaranthus retoflexus (AMARE); assay: Glasshouse herbicide test, post-emergence; details: POST Application; 500 g/h; evaluated after 13 days
Method: as §1

[5] = test system: Ipomoea hederacea (IPOHE); assay: Glasshouse herbicide test, post-emergence; details: POST Application; 500 g/h; evaluated after 13 days
Method: as §1

[6] = test system: Abutilon theophrasti (ABUTH); assay: Glasshouse herbicide test, pre-emergence; details: PRE Application; 500 g/h; evaluated after 13 days
Method: as §1

Setaria faberi (SETFA) [7] = assay: Glasshouse herbicide test, pre-emergence; details: PRE Application; 500 g/h; evaluated after 13 days
Method: as §1

[8] = test system: Echinochloa crus-galli (ECHCG); assay: Glasshouse herbicide test, pre-emergence; details: PRE Application; 500 g/h; evaluated after 13 days
Method: as §1

[9] = test system: Amaranthus retoflexus (AMARE); assay: Glasshouse herbicide test, pre-emergence; details: PRE Application; 500 g/h; evaluated after 13 days
Method: as §1

[10] = test system: Ipomoea hederacea (IPOHE); assay: Glasshouse herbicide test, pre-emergence; details: PRE Application; 500 g/h; evaluated after 13 days
Method: as §1

Structure (SMILES)	percentage damage caused to the plant, five point scale, ABUTH [1]	percentage damage caused to the plant, five point scale, SETFA (Setaria faberi (SETFA) [2])	percentage damage caused to the plant, five point scale, ECHCG [3]	percentage damage caused to the plant, five point scale, AMARE [4]	percentage damage caused to the plant, five point scale, IPOHE [5]	percentage damage caused to the plant, five point scale, ABUTH [6]	percentage damage caused to the plant, five point scale, SETFA (Setaria faberi (SETFA) [7])	percentage damage caused to the plant, five point scale, ECHCG [8]	percentage damage caused to the plant, five point scale, AMARE [9]	percentage damage caused to the plant, five point scale, IPOHE [10]
CCCON(C)c1c(S(C)(=O)=O)ccc(C(=O)Nc2nnnn2C)c1Cl [Compound 1.056]	5 (5=80-100%)	5 (5=80-100%)	5 (5=80-100%)	5 (5=80-100%)	5 (5=80-100%)	5 (5=80-100%)	5 (5=80-100%)	5 (5=80-100%)	5 (5=80-100%)	5 (5=80-100%)
CC(C)ON(C)c1c(S(C)(=O)=O)ccc(C(=O)Nc2nnnn2C)c1Cl [Compound 1.057]	5 (5=80-100%)	5 (5=80-100%)	5 (5=80-100%)	5 (5=80-100%)	5 (5=80-100%)	5 (5=80-100%)	5 (5=80-100%)	5 (5=80-100%)	5 (5=80-100%)	5 (5=80-100%)
CCS(=O)(=O)c1ccc(C(=O)Nc2nnnn2C)c(Cl)c1N(C)OC [Compound 1.062]	5 (5=80-100%)	5 (5=80-100%)	5 (5=80-100%)	5 (5=80-100%)	5 (5=80-100%)	5 (5=80-100%)	5 (5=80-100%)	5 (5=80-100%)	5 (5=80-100%)	5 (5=80-100%)
CON(C(=O)C(C)(C)C)c1c(C(F)(F)F)ccc(C(=O)Nc2nnnn2C)c1F [Compound 1.063]	5 (5=80-100%)	5 (5=80-100%)	5 (5=80-100%)	5 (5=80-100%)	4 (4=60-79%)	5 (5=80-100%)	5 (5=80-100%)	5 (5=80-100%)	5 (5=80-100%)	2 (2=20-39%)
CON(C)c1c(C(F)(F)F)ccc(C(=O)Nc2nnnn2C)c1F [Compound 1.065]	5 (5=80-100%)	5 (5=80-100%)	5 (5=80-100%)	5 (5=80-100%)	5 (5=80-100%)	5 (5=80-100%)	5 (5=80-100%)	5 (5=80-100%)	5 (5=80-100%)	5 (5=80-100%)

— US11851411B2, “Herbicidal compounds” (SYNGENTA CROP PROTECTION AG, priority 2018, dated 2023)
